From US8119614B2, “Substitution derivatives of N6-benzyladenosine, methods of their preparation, their use for preparation of drugs, cosmetic preparations and growth regulators, pharmaceutical preparations, cosmetic preparations and growth regulators containing these compounds” (Ustav Experimentalni Botaniky Akademie Ved Ceske Republiky, priority 2002, dated 2012) come the findings set out here.

One series relates to HL-60 cells. Kind of series: HL-60 cell proliferation and viability (FDA/PI staining). The format is cell-based, human. The procedure: Cell culture. A suspension of human promyelocytic HL-60 cells was cultured in RPMI-1640 medium supplemented with a 10% calf foetal serum and antibiotics in 5% CO2 atmosphere at 37° C. Cells were maintained at density from 1×10^5 to 6×10^5 cells per ml. HL-60 cells were obtained from ECACC.
Cell viability assay. Double staining with fluorescein diacetate (FDA) and propidium iodide (PI) for discrimination of dead and living cells was used. Cells were stained in growing medium with PI at a concentration 10 μg/ml 5 min later FDA was added at a concentration 1 μg/ml. The percentage of dead cells (i.e., red stained cells) was evaluated using fluorescence microscopy (Mlejnek and Kolman 1999).

Another series deals with caspase-9. Kind of series: Caspase protease activity measurement in cell extracts, caspase-9. In kind it is cell-based, human. To be noted: 20 μM, substrate Ac-LEHD-AFC (FIG. 9). On the procedure:
Caspase protease activity measurement. Cells were washed in PBS and then extracted in buffer [50 mM HEPES, pH 7.4, 1 mM EDTA, 0.1% Chaps, 5 mM DTT, and proteinase inhibitor cocktail (Roche)] on ice. Cell extracts were centrifuged for 30 min at 30 000×g at 4° C. Clarified extract were immediately analysed or stored at −80° C. […] The assay was carried out in 1 ml tubes, aliquots of lysates (200-300 μg of total protein) were mixed with 1 ml of buffer (25 mM PIPES/KOH, 2 mM EGTA, 5 mM DTT, and 0.1% Chaps, pH 7.3) and reactions were initiated by adding 50 μM substrate. Samples were incubated for 1 hour at 30° C. before the fluorescence was determined. Excitation and emission wavelengths were the same for both substrates (380 nm and 445 nm, respectively).

The test system of another series is p21^WAF-1 protein. Kind of series: Induction of p21^WAF-1 protein in MCF-7 cells (SDS-PAGE, immunodetection). The format is cell-based, human. On the procedure:
MCF-7 cells cultured at 37° C. in 5% CO2 atmosphere in D-MEM medium supplemented with 10% foetal calf serum were treated with 2OH3MeOBAPR concentrations range of 0-100 μM. 2OH3MeOBAPR was added into the medium from the 100 mM storage solution in DMSO. Cells were harvested after 12 hours incubation with 2OH3MeOBAPR, centrifuged (1000 rpm, 4° C., 5 min), washed twice by ice-cold PBS and re-centrifuged. These washed cells were then lysed by 1×CSB (loading buffer for SDS-PAGE, i.e. electrophoresis of proteins in polyacrylamide gel containing SDS). Cell lysate proteins were separated by SDS-PAGE and transferred onto a nitrocelulose (NC) membrane. NC membrane was blocked by 5% skimmed milk, 0.1% Tween 20 in PBS. Protein level of p21^WAF-1 and actin (as a loaded protein volume control) were detected immunochemically using commercially available specific monoclonal antibodies anti-p21^WAF-1 (Ab-1, Calbiochem) and anti-Actin (Clone AC-40, Sigma-Aldrich). The primary antibodies bind to target proteins were detected using rabbit secondary peroxidase-labeled antibody (RAM-Px, DAKO), followed by chemiluminiscence (ECL, Amersham-Pharmacia).
MCF-7 cells were incubated in presence of 1 μM 2OH3MeOBAPR. Treated cells were harvested and lysed after various time periods of 2OH3MeOBAPR treatment. […]

Another series relates to Rosa hybrida ‘Pailin’. Kind of series: Early shoot senescence inhibition of tissue cultured roses. The conditions noted are these: 10 μM in medium. In kind it is in vivo. On the procedure: Rosa hybrida ‘Pailin’ (a cut rose) was cultured in 350 ml vessels with a screw on polycarbonate lid. Each culture vessel contained 100 ml autoclaved medium (120° C., 20 min). The cultures were maintained at 23±2° C. under a 16 h photoperiod at […] m^−2 s^−1 PAR. The basal medium (MBR) contained Murashige and Skoog (1962) macroelements, microelements and vitamins, 36.7 mg/l NaFeEDTA, 50 mg/l NaFeEDDHA, […], 30 g/l sucrose, 100 mg/l glycine, 50 mg/l calcium pantothenate, 100 mg/l L-glutamine and 7 g/l agar-agar. This medium was supplemented with 10 μM of the tested cytokinin. New cytokinins were filter sterilised and added after autoclaving the medium in the vessels. 6-Benzylaminopurine (BAP) was used as a standard compound; the control medium didn't contain any cytokinin. After a culture period of 6 weeks, scoring senescence symptoms was started.

As for `COc1cccc(CNc2ncnc3c2ncn3[C@@H]2O[C@H](CO)[C@@H](O)[C@H]2O)c1O` [2-hydroxy-3-methoxybenzylamino, 6-(2-hydroxy-3-methoxybenzylamino)purine riboside], the “inhibition of HL-60 cell proliferation” value in the series with HL-60 cells (2.5-60 μM (FIG. 4)) is recorded as “inhibit cell proliferation”. Further, the “cytotoxicity of the compound itself versus its phosphorylated forms” value in the series on HL-60 cells (HL-60 cells) is reported as “is not cell cytotoxic by itself”. The “activation of caspase-9” value in the series with caspase-9 was “activate caspase proteases, especially caspase-9 and -3”. Further, in the series on p21^WAF-1 protein (1 μM, 6-24 hours after addition), the “p21^WAF-1 protein induction in dependence on duration of incubation” value was “Efficient p21^WAF-1 protein induction is achieved”. For the same compound, in the series with p21^WAF-1 protein (12 hours, 0-100 μM, effective at units of μmol/liter), the “p21^WAF-1 protein induction in dependence on concentration” value is “Efficient p21^WAF-1 protein induction is achieved”.

Consider `COc1cccc(CNc2ncnc3c2ncn3[C@@H]2O[C@H](CO)[C@@H](O)[C@H]2O)c1` [3-methoxybenzylamino, 6-(3-methoxybenzylamino)purine riboside], for which the results for the “senescence / dying of rose explants (in words)” value with Rosa hybrida ‘Pailin’ (listed as 3MeOBAPR) and in the series with Rosa hybrida ‘Pailin’ (listed as mMeOBAPR) were “Even after 121 days almost all plants were still alive” and “vigorous Rosa plantlet after 121 days of cultivation”, respectively.
